# From patent US20090054392A1, “NAPHTHYLPYRIMIDINE, NAPHTHYLPYRAZINE AND NAPHTHYLPYRIDAZINE ANALOGS AND THEIR USE AS AGONISTS OF THE WNT-BETA-CATENIN CELLULAR MESSAGING SYSTEM” (Wyeth, priority 2007, published 2009)
# Where two headings read alike, the source gives them in different places.
# Test system: Dkk1-LRP5-TCF-Luciferase
# Test: Functional Dkk1-LRP5-TCF-Luciferase Assay in U2OS Cells
# Settings: for fold induction at 2 µM: read-out: B = TCF ACTIVITY/DMSO CONTROL Fold induction @ 2.0 uM, 2.0 uM compound; for fold induction at 20 µM: read-out: C = TCF ACTIVITY/DMSO CONTROL Fold induction @ 20.0 uM, 20.0 uM compound; for A = MAX FOLD Induction/DMSO CONTROL: maximum fold induction over DMSO control
SMILES,"fold induction at 2 µM (Homo sapiens, U2OS)","fold induction at 20 µM (Homo sapiens, U2OS)",A = MAX FOLD Induction/DMSO CONTROL,"EC50 (Homo sapiens, U2OS)",EC50,"C = TCF ACTIVITY/DMSO CONTROL Fold induction @ 20.0 uM (20.0 uM compound, 20 µM)"
OCCC1CCN(c2nccc(-c3ccc4ccccc4c3)n2)CC1 [2-{1-[4-(2-naphthyl)pyrimidin-2-yl]piperidin-4-yl}ethanol],1.54,1.64,1.840 fold,,,
"N[C@H]1CCN([C@@H]2CCN(c3nccc(-c4ccc5ccccc5c4)n3)C2)C1 [(3S,3′R)-1′-[4-(2-naphthyl)pyrimidin-2-yl]-1,3′-bipyrrolidin-3-amine]",1.2,,,,,
CC(C)(C)N[C@@H]1CCN(c2nccc(-c3ccc4ccccc4c3)n2)C1 [(3R)—N-(tert-butyl)-1-[4-(2-naphthyl)pyrimidin-2-yl]pyrrolidin-3-amine],1.56,0.29,,,,
NC(=O)NCCC1CCN(c2nccc(-c3ccc4ccccc4c3)n2)CC1 [N-(2-{1-[4-(2-naphthyl)pyrimidin-2-yl]piperidin-4-yl}ethyl)urea],,,1.112 fold,,,
c1ccc2cc(-c3ccnc(N4CC[C@@H](N5CCCCCC5)C4)n3)ccc2c1 [1-{(3R)-1-[4-(2-naphthyl)pyrimidin-2-yl]pyrrolidin-3-yl}azepane],1.25,1.3,,,,
O=CNCC1CCN(c2nccc(-c3ccc4ccccc4c3)n2)C1 (centres unmarked) [N-({1-[4-(2-naphthyl)pyrimidin-2-yl]pyrrolidin-3-yl}methyl)formamide],1.09,1.68,,,,
CS(=O)(=O)N[C@H]1CCN(c2nccc(-c3ccc4ccccc4c3)n2)C1 [N-{(3S)-1-[4-(2-naphthyl)pyrimidin-2-yl]pyrrolidin-3-yl}methanesulfonamide],0.68,1.56,1.420 fold,13.8 µM,,
c1ccc2cc(-c3ccnc(N4CCC(Cn5ccnc5)C4)n3)ccc2c1 (centres unmarked) [2-[3-(1H-imidazol-1-ylmethyl)pyrrolidin-1-yl]-4-(2-naphthyl)pyrimidine],1.28,0.38,,,,
"CCN(CC)C(=O)N[C@@H]1CCN(c2nccc(-c3ccc4ccccc4c3)n2)C1 [N,N-diethyl-N′-{(3R)-1-[4-(2-naphthyl)pyrimidin-2-yl]pyrrolidin-3-yl}urea]",1.22,1.8,1.270 fold,,,
CS(=O)(=O)N1CC(CNc2nccc(-c3ccc4ccccc4c3)n2)C1 [N-{[1-(methylsulfonyl)azetidin-3-yl]methyl}-4-(2-naphthyl)pyrimidin-2-amine],,1.52,,,,
c1ccc2cc(-c3ccnc(NCC4CNC4)n3)ccc2c1 [N-(azetidin-3-ylmethyl)-4-(2-naphthyl)pyrimidin-2-amine],1.46,1.15,3.140 fold,,,
CNC[C@@H]1CCN(c2nccc(-c3ccc4ccccc4c3)n2)C1 [N-methyl-1-{(3S)-1-[4-(2-naphthyl)pyrimidin-2-yl]pyrrolidin-3-yl}methanamine],2.74,0.503,4.773 fold,2.35 µM,,
c1ccc2cc(-c3ccnc(N4CCC(CN5CCOCC5)C4)n3)ccc2c1 (centres unmarked) [4-({1-[4-(2-naphthyl)pyrimidin-2-yl]pyrrolidin-3-yl}methyl)morpholine],1.07,3.1,2.990 fold,4.8 µM,,
N#CC1CCN(c2nccc(-c3ccc4ccccc4c3)n2)CC1 [1-[4-(2-naphthyl)pyrimidin-2-yl]piperidine-4-carbonitrile],2.79,,5.015 fold,1.07 µM,,
CS(=O)(=O)N1CCC(CNc2nccc(-c3ccc4ccccc4c3)n2)CC1 [N-{[1-(methylsulfonyl)piperidin-4-yl]methyl}-4-(2-naphthyl)pyrimidin-2-amine],1.54,1.35,,,,
OC1CCCN([C@H]2CCN(c3nccc(-c4ccc5ccccc5c4)n3)C2)C1 (stereo partly drawn) [1-{(3S)-1-[4-(2-naphthyl)pyrimidin-2-yl]pyrrolidin-3-yl}piperidin-3-ol],2.48,0.13,6.735 fold,3.55 µM,,
c1ccc(N2CCN(c3nccc(-c4ccc5ccccc5c4)n3)CC2)nc1 [4-(2-naphthyl)-2-(4-pyridin-2-ylpiperazin-1-yl)pyrimidine],1.8,,,,,
O=C(c1ccccc1)N1CCC(Nc2nccc(-c3ccc4ccccc4c3)n2)CC1 [N-(1-benzoylpiperidin-4-yl)-4-(2-naphthyl)pyrimidin-2-amine],1.95,0.01,1.490 fold,,,

SMILES,"fold induction at 2 µM (Homo sapiens, U2OS)","fold induction at 20 µM (Homo sapiens, U2OS)",A = MAX FOLD Induction/DMSO CONTROL,"EC50 (Homo sapiens, U2OS)",EC50,"C = TCF ACTIVITY/DMSO CONTROL Fold induction @ 20.0 uM (20.0 uM compound, 20 µM)"
CC(=O)N[C@H]1CC[C@H](Nc2nccc(-c3ccc4ccccc4c3)n2)CC1 [N-(trans-4-{[4-(2-naphthyl)pyrimidin-2-yl]amino}cyclohexyl)acetamide],1.9,3.2,3.695 fold,18.9 µM,,
CN(c1nccc(-c2ccc3ccccc3c2)n1)C1CCN(C(=O)OC(C)(C)C)CC1 [tert-butyl 4-{methyl[4-(2-naphthyl)pyrimidin-2-yl]amino}piperidine-1-carboxylate],0.98,1.92,,,,
"CN(C)[C@@H]1CCN([C@H]2CCN(c3nccc(-c4ccc5ccccc5c4)n3)C2)C1 [(3R,3′S)-N,N-dimethyl-1′-[4-(2-naphthyl)pyrimidin-2-yl]-1,3′-bipyrrolidin-3-amine]",4.17,,4.637 fold,1.07 µM,,
NCC1CCN(c2cc(-c3ccc4ccccc4c3)ncn2)CC1 [1-{1-[6-(2-naphthyl)pyrimidin-4-yl]piperidin-4-yl}methanamine],2.79,1,3.226 fold,1.59 µM,,
c1ccc2cc(-c3ccnc(N4CCC(CN5CCCCC5)CC4)n3)ccc2c1 [4-(2-naphthyl)-2-[4-(piperidin-1-ylmethyl)piperidin-1-yl]pyrimidine],1.09,2.8,,8 µM,8.59 µM,1.687 fold
"FC(F)(F)CN[C@H]1CCN(c2nccc(-c3ccc4ccccc4c3)n2)C1 [(3S)-1-[4-(2-naphthyl)pyrimidin-2-yl]-N-(2,2,2-trifluoroethyl)pyrrolidin-3-amine]",0.83,1.38,,,,
CN(c1nccc(-c2ccc3ccccc3c2)n1)C1CCN(C(=O)N2CCCC2)CC1 [N-methyl-4-(2-naphthyl)-N-[1-(pyrrolidin-1-ylcarbonyl)piperidin-4-yl]pyrimidin-2-amine],1.81,,,,,
CCN(CCO)CC1CCN(c2nccc(-c3ccc4ccccc4c3)n2)C1 (centres unmarked) [2-[ethyl({1-[4-(2-naphthyl)pyrimidin-2-yl]pyrrolidin-3-yl}methyl)amino]ethanol],2.8,0.01,3.635 fold,2.26 µM,,
COC(=O)[C@H](N)C1CCN(c2nccc(-c3ccc4ccccc4c3)n2)CC1 [methyl (2R)-amino{1-[4-(2-naphthyl)pyrimidin-2-yl]piperidin-4-yl}acetate],1.68,1.05,3.200 fold,8.86 µM,,
CCN(CC)CC1CCN(c2nccc(-c3ccc4ccccc4c3)n2)C1 (centres unmarked) [N-ethyl-N-({1-[4-(2-naphthyl)pyrimidin-2-yl]pyrrolidin-3-yl}methyl)ethanamine],1.58,,,,,
O[C@H]1CCCN(CC2CCN(c3nccc(-c4ccc5ccccc5c4)n3)C2)C1 (stereo partly drawn) [(3S)-1-({1-[4-(2-naphthyl)pyrimidin-2-yl]pyrrolidin-3-yl}methyl)piperidin-3-ol],4.34,,6.950 fold,1.01 µM,,
"CN(C)C(=O)N1CCC(CNc2nccc(-c3ccc4ccccc4c3)n2)CC1 [N,N-dimethyl-4-({[4-(2-naphthyl)pyrimidin-2-yl]amino}methyl)piperidine-1-carboxamide]",0.87,1.24,,,,
CCNC(=O)N1CC(CNc2nccc(-c3ccc4ccccc4c3)n2)C1 [N-ethyl-3-({[4-(2-naphthyl)pyrimidin-2-yl]amino}methyl)azetidine-1-carboxamide],1.57,,,,,
CC(=O)NC1CCCN(c2nccc(-c3ccc4ccccc4c3)n2)CC1 (centres unmarked) [N-{1-[4-(2-naphthyl)pyrimidin-2-yl]azepan-4-yl}acetamide],1.26,2.91,1.350 fold,,,
CC(C)(C)NCC1CCN(c2nccc(-c3ccc4ccccc4c3)n2)CC1 [2-methyl-N-({1-[4-(2-naphthyl)pyrimidin-2-yl]piperidin-4-yl}methyl)propan-2-amine],1.49,5.76,3.890 fold,10.6 µM,,
c1ccc2cc(-c3ccnc(N4CCC(CN5CCCC5)CC4)n3)ccc2c1 [4-(2-naphthyl)-2-[4-(pyrrolidin-1-ylmethyl)piperidin-1-yl]pyrimidine],2.07,,,3.5 µM,3.18 µM,
CC(C)(C)OC(=O)N1CC[C@@H](Nc2nccc(-c3ccc4ccccc4c3)n2)C1 [tert-butyl (3R)-3-{[4-(2-naphthyl)pyrimidin-2-yl]amino}pyrrolidine-1-carboxylate],2.38,0.01,0.800 fold,,,
c1ccc2cc(-c3ccnc(N4CC[C@H](n5ccnc5)C4)n3)ccc2c1 [2-[(3S)-3-(1H-imidazol-1-yl)pyrrolidin-1-yl]-4-(2-naphthyl)pyrimidine],1.29,3.92,3.800 fold,3.93 µM,,
